Each molecule was assayed on HCT116 colorectal cancer cells (assay: Cisplatin sensitization assay (96 h MTS cell viability)). Conditions: Cisplatin sensitization value.
Type: cell-based
Procedure, shortened: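 HCT116 cells were dosed simultaneously with compound and cisplatin as a full matrix of 2-fold serial dilutions from 10 μM top final concentration. Incubation was 96 h at 37° C., 5% CO2, followed by 1 h with MTS reagent for the viability read-out. Sensitization values were binned into +++, ++ and + categories.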
`Nc1nn2cc(F)cnc2c1C(=O)Nc1cncc(Cl)c1N1CCNCC1` [I-N-126, 2-amino-N-(5-chloro-4-(piperazin-1-yl)pyridin-3-yl)-6-fluoropyrazolo[1,5-a]pyrimidine-3-carboxamide] was tested, and the “Cisplatin Sensitization Assay” value was “+++ (Compounds with a Cisplatin sensitization value of <0.02 μM are marked with “+++.”)”.
For `COCCN1CCN(c2c(F)cncc2NC(=O)c2c(N)nn3cc(F)cnc23)CC1` [I-N-127, 2-amino-6-fluoro-N-(5-fluoro-4-(4-(2-methoxyethyl)piperazin-1-yl)pyridin-3-yl)pyrazolo[1,5-a]pyrimidine-3-carboxamide], the “Cisplatin Sensitization Assay” value was “+++ (Compounds with a Cisplatin sensitization value of <0.02 μM are marked with “+++.”)”.
In the case of `CN1CCC(C(=O)N2CCN(c3c(F)cncc3NC(=O)c3c(N)nn4cc(F)cnc34)CC2)CC1` [I-N-128, 2-amino-6-fluoro-N-(5-fluoro-4-(4-(1-methylpiperidine-4-carbonyl)piperazin-1-yl)pyridin-3-yl)pyrazolo[1,5-a]pyrimidine-3-carboxamide], the “Cisplatin Sensitization Assay” value is reported as “+++ (Compounds with a Cisplatin sensitization value of <0.02 μM are marked with “+++.”)”.
With `Nc1nn2cc(F)cnc2c1C(=O)Nc1cncc(F)c1N1CCN(C(=O)C2CN3CCC2CC3)CC1` (stereo not shown) [I-N-130, 2-amino-6-fluoro-N-(5-fluoro-4-(4-(quinuclidine-3-carbonyl)piperazin-1-yl)pyridin-3-yl)pyrazolo[1,5-a]pyrimidine-3-carboxamide] the “Cisplatin Sensitization Assay” value was “++ (Compounds with a Cisplatin sensitization value >0.02 μM but <0.2 μM are marked with “++.”)”.
In the case of `CN1CC[C@@H](OC2CCN(c3ccncc3NC(=O)c3c(N)nn4cc(F)cnc34)CC2)C1` [I-N-131], the “Cisplatin Sensitization Assay” value is reported as “+++ (Compounds with a Cisplatin sensitization value of <0.02 μM are marked with “+++.”)”.
For `CN1CC[C@@H](OC2CCN(c3c(F)cncc3NC(=O)c3c(N)nn4cc(F)cnc34)CC2)C1` [I-N-132, (R)-2-amino-6-fluoro-N-(5-fluoro-4-(4-((1-methylpyrrolidin-3-yl)oxy)piperidin-1-yl)pyridin-3-yl)pyrazolo[1,5-a]pyrimidine-3-carboxamide], the “Cisplatin Sensitization Assay” value was “+++ (Compounds with a Cisplatin sensitization value of <0.02 μM are marked with “+++.”)”.
In the case of `CN1CCN(c2ccncc2NC(=O)c2c(N)nn3cc(F)cnc23)CC12CCOCC2` [I-N-133, 2-amino-6-fluoro-N-(4-(1-methyl-9-oxa-1,4-diazaspiro[5.5]undecan-4-yl)pyridin-3-yl)pyrazolo[1,5-a]pyrimidine-3-carboxamide], the “Cisplatin Sensitization Assay” value is reported as “++ (Compounds with a Cisplatin sensitization value >0.02 μM but <0.2 μM are marked with “++.”)”.
`Nc1nn2cc(F)cnc2c1C(=O)Nc1cncc(F)c1N1CCN(C(=O)C23CCN(CC2)CC3)CC1` [I-N-134, 2-amino-6-fluoro-N-(5-fluoro-4-(4-(quinuclidine-4-carbonyl)piperazin-1-yl)pyridin-3-yl)pyrazolo[1,5-a]pyrimidine-3-carboxamide] was tested, and the “Cisplatin Sensitization Assay” value was “+ (Compounds with a Cisplatin sensitization value >0.2 μM but <5 μM are marked with “+.”)”.
In the case of `Nc1nn2cc(F)cnc2c1C(=O)Nc1cncc(F)c1N1CCN2CCOC[C@H]2C1` [I-N-135, (R)-2-amino-6-fluoro-N-(5-fluoro-4-(hexahydropyrazino[2,1-c][1,4]oxazin-8(1H)-yl)pyridin-3-yl)pyrazolo[1,5-a]pyrimidine-3-carboxamide], the “Cisplatin Sensitization Assay” value is reported as “+++ (Compounds with a Cisplatin sensitization value of <0.02 μM are marked with “+++.”)”.
For `Nc1nn2cc(F)cnc2c1C(=O)Nc1cnccc1N1CCN2C(=O)COCC2C1` (stereo not shown) [I-N-136, 2-amino-6-fluoro-N-(4-(4-oxohexahydropyrazino[2,1-c][1,4]oxazin-8(1H)-yl)pyridin-3-yl)pyrazolo[1,5-a]pyrimidine-3-carboxamide], the “Cisplatin Sensitization Assay” value was “++ (Compounds with a Cisplatin sensitization value >0.02 μM but <0.2 μM are marked with “++.”)”.
With `Nc1nn2cc(F)cnc2c1C(=O)Nc1cncc(F)c1N1CCN2CCOC[C@@H]2C1` [I-N-137, (S)-2-amino-6-fluoro-N-(5-fluoro-4-(hexahydropyrazino[2,1-c][1,4]oxazin-8(1H)-yl)pyridin-3-yl)pyrazolo[1,5-a]pyrimidine-3-carboxamide] the “Cisplatin Sensitization Assay” value was “++ (Compounds with a Cisplatin sensitization value >0.02 μM but <0.2 μM are marked with “++.”)”.
`CN1CCN(c2c(F)cncc2NC(=O)c2c(N)nn3cc(C(C)(C)C#N)cnc23)CC1` [I-N-138, 2-amino-6-(2-cyanopropan-2-yl)-N-(5-fluoro-4-(4-methylpiperazin-1-yl)pyridin-3-yl)pyrazolo[1,5-a]pyrimidine-3-carboxamide] was tested, and the “Cisplatin Sensitization Assay” value was “++ (Compounds with a Cisplatin sensitization value >0.02 μM but <0.2 μM are marked with “++.”)”.
In the case of `CC(C)(O)CN1CCN(c2c(F)cncc2NC(=O)c2c(N)nn3cc(F)cnc23)CC1` [I-N-139, 2-amino-6-fluoro-N-(5-fluoro-4-(4-(2-hydroxy-2-methylpropyl)piperazin-1-yl)pyridin-3-yl)pyrazolo[1,5-a]pyrimidine-3-carboxamide], the “Cisplatin Sensitization Assay” value is reported as “+++ (Compounds with a Cisplatin sensitization value of <0.02 μM are marked with “+++.”)”.
For `CN1CCN(C(=O)N2CCN(c3c(F)cncc3NC(=O)c3c(N)nn4cc(F)cnc34)CC2)CC1` [I-N-140, 2-amino-6-fluoro-N-(5-fluoro-4-(4-(4-methylpiperazine-1-carbonyl)piperazin-1-yl)pyridin-3-yl)pyrazolo[1,5-a]pyrimidine-3-carboxamide], the “Cisplatin Sensitization Assay” value was “+++ (Compounds with a Cisplatin sensitization value of <0.02 μM are marked with “+++.”)”.
With `Nc1nn2cc(F)cnc2c1C(=O)Nc1cnccc1N1CCOCC1` [I-N-141, 2-amino-6-fluoro-N-(4-morpholinopyridin-3-yl)pyrazolo[1,5-a]pyrimidine-3-carboxamide] the “Cisplatin Sensitization Assay” value was “+++ (Compounds with a Cisplatin sensitization value of <0.02 μM are marked with “+++.”)”.
For `CC(C)(C#N)c1cnc2c(C(=O)Nc3cnccc3N3CCN(C4COC4)CC3)c(N)nn2c1` [I-N-142, 2-amino-6-(2-cyanopropan-2-yl)-N-(4-(4-(oxetan-3-yl)piperazin-1-yl)pyridin-3-yl)pyrazolo[1,5-a]pyrimidine-3-carboxamide], the “Cisplatin Sensitization Assay” value was “++ (Compounds with a Cisplatin sensitization value >0.02 μM but <0.2 μM are marked with “++.”)”.
With `CC(C#N)c1cnc2c(C(=O)Nc3cnccc3N3CCN(C4COC4)CC3)c(N)nn2c1` (stereo not shown) [I-N-143, 2-amino-6-(1-cyanoethyl)-N-(4-(4-(oxetan-3-yl)piperazin-1-yl)pyridin-3-yl)pyrazolo[1,5-a]pyrimidine-3-carboxamide] the “Cisplatin Sensitization Assay” value was “++ (Compounds with a Cisplatin sensitization value >0.02 μM but <0.2 μM are marked with “++.”)”.
`CC(C)(C#N)c1cnc2c(C(=O)Nc3cncc(F)c3N3CCN(C4COC4)CC3)c(N)nn2c1` [I-N-144] was tested, and the “Cisplatin Sensitization Assay” value was “+++ (Compounds with a Cisplatin sensitization value of <0.02 μM are marked with “+++.”)”.
`CN(C)S(=O)(=O)C1CCN(c2c(F)cncc2NC(=O)c2c(N)nn3cc(F)cnc23)CC1` [I-N-146, 2-amino-N-(4-(4-(N,N-dimethylsulfamoyl)piperidin-1-yl)-5-fluoropyridin-3-yl)-6-fluoropyrazolo[1,5-a]pyrimidine-3-carboxamide] was tested, and the “Cisplatin Sensitization Assay” value was “+++ (Compounds with a Cisplatin sensitization value of <0.02 μM are marked with “+++.”)”.

From patent publication US11117900B2 (Vertex Pharmaceuticals Incorporated, priority 2012, dated 2021)
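Also: compound concentration needed to lower the IC50 of Cisplatin alone by a set fold.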
